Measurements published in patent publication US20230346741A1, “ERIODICTYOL COMPOSITIONS AND METHODS” (CAS PROPERTIES, LLC, priority 2022, published 2023).

Experiments:
[1] = system: IL-1β secretion, human SV40 microglia cells; assay: IL-1β secretion by LPS-stimulated human SV40 microglia after pretreatment; assay type: cell-based; conditions: 50 micromolar concentration; pretreated two hours, then LPS stimulation; FIG. 2
Source text: Cultured human SV40 microglia cells were pretreated with eriodictyol (Erio) or nobiletin (Nobi) for two hours to determine the degree to which eriodictyol and nobiletin inhibits the secretion of the proinflammatory cytokine interleukin-1β(IL-1β) followed by stimulation by bacteria lipopolysaccharide (LPS).

[2] = Treatment of a subject with long-COVID syndrome (case report); assay type: in vivo, human; conditions: 60 mg per day (2 x 30 mg capsules) for three months; one subject
Protocol: A subject having a diagnosis of long-COVID syndrome was administered 60 milligrams (mg) eriodictyol (30 mg/vegetarian capsule; 2 capsules daily) per day for three months. The subject reported an over 80% reduction in long-covid symptoms that included a 80% reduction in fatigue, brain fog, difficulty concentrating, difficulty remembering, difficulty finding the right words, and difficulty multi-tasking.

[3] = system: Chikungunya virus; assay: Plaque reduction in human microglia cells infected with Chikungunya virus; conditions: 100 micromolar concentration; FIG. 1

Compound | inhibition of IL-1β secretion compared with luteolin and methoxyluteolin [1] | reduction in fatigue, brain fog, difficulty concentrating, remembering, finding the right words and multi-tasking (subject-reported) [2] [%] | reduction in long-covid symptoms (subject-reported) [2] | potency of plaque inhibition compared with nobiletin [3]
O=C1C[C@@H](c2ccc(O)c(O)c2)Oc2cc(O)cc(O)c21 [eriodictyol, (2S)-2-(3,4-Dihydroxyphenyl)-5,7-dihydroxy-2,3-dihydro-4H-1-benzopyran-4-one] | more potent inhibitors of IL-1β secretion as compared to luteolin (Lut) and methoxyluteolin (Methlut) | 80 | over 80% | slightly more potent inhibitor than nobiletin
COc1ccc(-c2cc(=O)c3c(OC)c(OC)c(OC)c(OC)c3o2)cc1OC [nobiletin, reference compound] | more potent inhibitors of IL-1β secretion as compared to luteolin (Lut) and methoxyluteolin (Methlut) | – | – | –
